Among the data in PubChem BioAssay (NCI) are TGI values, retold here.

Test systems include MDA-N; RXF 393 renal; CCRF-CEM leukemia; OVCAR-5 ovarian; EKVX NSCLC; RPMI-8226 leukemia; HCT-116 colon; SNB-19 CNS; OVCAR-4 ovarian; SK-OV-3 ovarian; UO-31 renal; MDA-MB-231 breast; ACHN renal; MDA-MB-435; HOP-62 NSCLC; OVCAR-3 ovarian; NCI-H460 lung; SR leukemia; SF-539 CNS; MCF7 breast.
Holding throughout (experiment): growth of human tumour cells (NCI), 48 h

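All cell lines were grown in 96-well plates and treated with compound for 48 hours. The concentration for full growth arrest is given as TGI.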 Some results are limits rather than exact numbers.

For `c1ccc2c(c1)NCCC(=NC1CCCCC1)N2`, the TGI with MDA-N, with RXF 393 renal, with CCRF-CEM leukemia, with OVCAR-5 ovarian, with EKVX NSCLC and with RPMI-8226 leukemia was more than 100 µM throughout. For the same molecule, the TGI in the assay on HCT-116 colon, in the assay on SNB-19 CNS, in the assay on OVCAR-4 ovarian, in the assay on SK-OV-3 ovarian, with UO-31 renal and in the assay with MDA-MB-231 breast was more than 100 µM each time. Moreover, the TGI in the assay with ACHN renal, with MDA-MB-435, in the assay on HOP-62 NSCLC, in the assay on OVCAR-3 ovarian and in the assay on NCI-H460 lung was more than 100 µM in each case.

In the case of `O=C(Cn1cc(-c2ccccc2)nn1)NC1CCCCC1`, the TGI in the assay on SR leukemia, in the assay with SF-539 CNS, in the assay with CCRF-CEM leukemia, in the assay on OVCAR-5 ovarian, in the assay with EKVX NSCLC and in the assay on RPMI-8226 leukemia was more than 100 µM each time. Besides, the TGI with HCT-116 colon, in the assay on SNB-19 CNS, with OVCAR-4 ovarian, with MDA-MB-231 breast, with ACHN renal and with MDA-MB-435 was more than 100 µM each time. Moreover, the TGI in the assay with HOP-62 NSCLC, with NCI-H460 lung and in the assay on MCF7 breast was more than 100 µM in each case.

Take `CCCC(=O)Nc1cc(/C=C/C(=O)N2CC(CCl)c3c2cc(OCc2ccccc2)c2[nH]cc(C)c32)n(C)c1` (centres undefined): the TGI in the assay with MDA-N turned out to be 1.67 µM; with RXF 393 renal, 0.0852 µM; in the assay on SR leukemia it was 0.0722 µM; in the assay with SF-539 CNS it was 0.165 µM; in the assay with CCRF-CEM leukemia, 0.244 µM; with OVCAR-5 ovarian it was 1.22 µM. The TGI was 0.635 µM in the assay with EKVX NSCLC; 1.3 µM in the assay on RPMI-8226 leukemia; 0.225 µM with HCT-116 colon; 24.6 µM with SNB-19 CNS; 0.889 µM with OVCAR-4 ovarian; more than 25 µM with SK-OV-3 ovarian. Further, the TGI in the assay with UO-31 renal is 0.215 µM; in the assay with MDA-MB-231 breast, more than 25 µM; in the assay with ACHN renal, 0.0833 µM; in the assay on MDA-MB-435, 0.918 µM; with HOP-62 NSCLC, 0.453 µM; in the assay with OVCAR-3 ovarian it was 0.512 µM. This molecule registered a TGI with NCI-H460 lung of 0.0588 µM.

On to `COc1ccc(NC(=S)N/N=C\c2ccc(NC(C)=O)cc2)cc1`, for which the TGI in the assay with MDA-N, in the assay on SR leukemia, in the assay with CCRF-CEM leukemia, with OVCAR-5 ovarian, in the assay with EKVX NSCLC and in the assay with RPMI-8226 leukemia was more than 100 µM each time. Besides, the TGI in the assay with HCT-116 colon, in the assay with SNB-19 CNS, in the assay with OVCAR-4 ovarian, in the assay on SK-OV-3 ovarian, in the assay with UO-31 renal and with MDA-MB-231 breast was more than 100 µM throughout. The TGI in the assay with ACHN renal, with MDA-MB-435, in the assay on HOP-62 NSCLC, with OVCAR-3 ovarian and in the assay on NCI-H460 lung was more than 100 µM in each case.

Regarding `CC(=O)OC(CN1CCN(c2ccccn2)CC1)Cn1sc2nc(C)cc(C)c2c1=O` (centres undefined), the TGI in the assay on RXF 393 renal is 35.6 µM; with SR leukemia it was more than 100 µM; with SF-539 CNS, 29.2 µM; in the assay with CCRF-CEM leukemia, more than 100 µM; with OVCAR-5 ovarian, 31.5 µM; with EKVX NSCLC, 32.4 µM. The TGI with RPMI-8226 leukemia was more than 100 µM; with HCT-116 colon, 30.5 µM; with SNB-19 CNS, more than 100 µM; in the assay on OVCAR-4 ovarian, 55.4 µM; in the assay on SK-OV-3 ovarian it was 35.9 µM; in the assay with UO-31 renal, 30.2 µM. Moreover, the TGI came out at 32.6 µM in the assay with MDA-MB-231 breast; 30 µM in the assay with ACHN renal; 34.5 µM with MDA-MB-435; 81.1 µM in the assay with HOP-62 NSCLC; 50.7 µM with OVCAR-3 ovarian; 35.2 µM with NCI-H460 lung. For the same molecule, the TGI in the assay on MCF7 breast was 34 µM.

Consider `Cc1ccc(/C=N/n2c(Cc3ccccc3)n[nH]c2=O)cc1`, for which the TGI in the assay on MDA-N, in the assay with RXF 393 renal, with SR leukemia, in the assay on SF-539 CNS, in the assay with CCRF-CEM leukemia and in the assay with OVCAR-5 ovarian was more than 100 µM throughout. The TGI in the assay with EKVX NSCLC, in the assay on RPMI-8226 leukemia, in the assay with HCT-116 colon, with SNB-19 CNS, in the assay with OVCAR-4 ovarian and with UO-31 renal was more than 100 µM throughout. The TGI in the assay with MDA-MB-231 breast, in the assay on ACHN renal, in the assay on HOP-62 NSCLC, with OVCAR-3 ovarian and in the assay with NCI-H460 lung was more than 100 µM in each case.

As to `CC1=NN(C(=O)c2ccccc2O)C(=O)/C1=C/c1cccc(O)c1`, the TGI with MDA-N is more than 100 µM; in the assay on SR leukemia it was more than 100 µM; in the assay with SF-539 CNS, 4.29 µM; in the assay on CCRF-CEM leukemia it was more than 100 µM; in the assay with OVCAR-5 ovarian it was more than 100 µM; in the assay with EKVX NSCLC it was more than 100 µM. Besides, the TGI in the assay with RPMI-8226 leukemia, in the assay on HCT-116 colon, in the assay on SNB-19 CNS, in the assay on OVCAR-4 ovarian, in the assay on SK-OV-3 ovarian and with MDA-MB-231 breast was more than 100 µM each time. The TGI in the assay with ACHN renal, in the assay on NCI-H460 lung and with MCF7 breast was more than 100 µM throughout.
